Series [1] in a line: Osmotic pressure analysis of osmosis draw solution by freezing point depression. It counts as physicochemical. Particulars: draw solution concentration 10 wt %. The procedure: Osmosis draw solutions having the various concentrations shown in the following Table 1 are prepared, and the osmotic pressure of the osmosis draw solution including the NIPAam oligomer prepared from Examples 1 to 4 is analyzed using the osmotic pressure measurer according to a freezing point depression.

Series [2] is described as follows: Solubility change of 10 wt % osmosis draw solution on slow heating (LCST, separation temperature, reversibility). The class given is physicochemical. The text has this:
Each osmosis draw solution including the compounds of Examples 1 to 5 and Comparative Examples 1 and 2 at a concentration of 10 wt % is slowly heated from room temperature, and the solubility change of the solution is observed according to the temperature. The term “lower critical solution temperature (LCST)” indicates the temperature at which the solution begins to suddenly turn opaque, and the term “separation temperature” indicates the temperature in which the solution begins to be precipitated.

Consider `C=CC(=O)NC(C)C` [Comparative Example 1, N-isopropylacrylamide], for which, in series [1], the “Osmotic pressure, Osmol concentration” value worked out at 738 mOsmol/kg and the “Osmotic pressure, atm (equivalents)” value is given as 18 atm. Moreover, the LCST in series [2] (10 wt % solution heated from room temperature, temperature at which solution begins to suddenly turn opaque) was 36-37 °C. In series [2] (@ 25° C.), the Reversibility result was “◯”.

(Values after US9492789B2, “Draw solute for forward osmosis, forward osmosis water treatment device, and forward osmosis method for water treatment” (Samsung Electronics Co., Ltd., priority 2012, dated 2016).)
